Reference: patent publication US4401604A, “Process for preparing thiosulfenamide derivatives of N-phosphonomethylglycine triesters” (Monsanto Company, priority 1981, dated 1983)

Columns and labels:
Type in all cases: in vivo
Morningglory [1] = assay: Pre-emergent herbicidal activity; details: Table III; 11.2 kg/h; 2 WAT
From the text: (§1) A good grade of top soil is placed in aluminum pans and compacted to a depth of 0.95 to 1.27 cm. from the top of each pan. A predetermined number of seeds or vegetative propagules of each of several plant species are placed on top of the soil in each pan and then pressed down. Herbicidal compositions prepared as in the previous example are applied by admixture with or incorporation in the top layer of soil.
(§2) In this method, the soil required to cover the seeds and propagules is weighed and admixed with a herbicidal composition containing a known amount of the active ingredient (compound of this invention). The pans are then filled with the admixture and leveled. Watering is carried out by permitting the soil in the pans to absorb moisture through apertures in the pan bottoms. The seed and propagule containing pans are placed on a wet sand bench and maintained for approximately two weeks under ordinary conditions of sunlight and watering. At the end of this period, the number of emerged plants of each species is noted and compared to an untreated control.
(§3) The pre-emergent herbicidal activity index used below is based upon average percent control of each species as follows:
(§4) Plant species in the table are identified by the same code letters used in the previous example.

Yellow Nutsedge [2] = assay: Pre-emergent herbicidal activity; details: Table III; 11.2 kg/h; 2 WAT
From the text: as §1, §2, §3, §4

Downy Brome [3] = assay: Pre-emergent herbicidal activity; details: Table III; 11.2 kg/h; 2 WAT
From the text: as §1, §2, §3, §4

Barnyardgrass [4] = assay: Pre-emergent herbicidal activity; details: Table III; 11.2 kg/h; 2 WAT
From the text: as §1, §2, §3, §4

Lambsquarters [5] = assay: Pre-emergent herbicidal activity; details: Table III; 11.2 kg/h; 2 WAT
From the text: as §1, §2, §3, §4

Cocklebur [6] = assay: Pre-emergent herbicidal activity; details: Table III; 11.2 kg/h; 2 WAT
From the text: as §1, §2, §3, §4

Velvetleaf [7] = assay: Pre-emergent herbicidal activity; details: Table III; 11.2 kg/h; 2 WAT
From the text: as §1, §2, §3, §4

Johnsongrass [8] = assay: Pre-emergent herbicidal activity; details: Table III; 11.2 kg/h; 2 WAT
From the text: as §1, §2, §3, §4

Quackgrass [9] = assay: Pre-emergent herbicidal activity; details: Table III; 11.2 kg/h; 2 WAT
From the text: as §1, §2, §3, §4

Crabgrass = assay: Post-emergence herbicidal activity, greenhouse; details: Table II, 4 WAT
From the text: (§5) A good grade of top soil is placed in aluminum pans having holes in the bottom and compacted to a depth of 0.95 to 1.27 cm. from the top of the pan. A predetermined number of seeds of each of several dicotyledonous and monocotyledonous annual plant species and/or vegetative propagules for the perennial plant species are placed on the soil and pressed into the soil surface. The seeds and/or vegetative propagules are covered with soil and leveled. The pans are then placed on a sand bench in the greenhouse and watered from below as needed. After the plants reach the desired age (two to three weeks), each pan except for the control pans is removed individually to a spraying chamber and sprayed by means of an atomizer operating at a positive air pressure of approximately 1.46 kg/cm^2 absolute. The atomizer contains 6 ml. of a solution or suspension of the chemical. In that 6 ml., is an amount of a cyclohexanone emulsifying agent mixture to give a spray solution or suspension which contains about 0.4% by weight of the emulsifier. The spray solution or suspension contains a sufficient amount of the candidate chemical in order to give application rates corresponding to those set forth in the tables. The spray solution is prepared by taking an aliquot of a 1.0% by weight stock solution or suspension of the candidate chemical in an organic solvent such as acetone or tetrahydrofuran or in water. The emulsifying agent employed is a mixture comprising 35 weight percent butylamine dodecylbenzene sulfonate and 65 weight percent of a tall oil ethylene oxide condensate having about 11 moles of ethylene oxide per mole of tall oil. The pans are returned to the greenhouse and watered as before and the injury to the plants as compared to the control is observed at approximately two and four weeks as indicated in the tables under WAT and the results recorded. In some instances, the two-week observations are omitted.
(§6) The post-emergence herbicidal activity index used in Table I is as follows:
(§7) The plant species utilized in these tests are identified by letter in accordance with the following legend: […]

Morningglory [10] = assay: Post-emergence herbicidal activity, greenhouse; details: 4 WAT
From the text: as §5, §6, §7

Soybean = assay: Post-emergence herbicidal activity, greenhouse; details: Table II, 4 WAT
From the text: as §5, §6, §7

Sugar Beet = assay: Post-emergence herbicidal activity, greenhouse; details: Table II, 4 WAT
From the text: as §5, §6, §7

Wheat = assay: Post-emergence herbicidal activity, greenhouse; details: Table II, 4 WAT
From the text: as §5, §6, §7

Canada Thistle = assay: Post-emergence herbicidal activity, greenhouse; details: Table I, 4 WAT
From the text: as §5, §6, §7

Yellow Nutsedge [11] = assay: Post-emergence herbicidal activity, greenhouse; details: Table I, 4 WAT
From the text: as §5, §6, §7

Smartweed = assay: Post-emergence herbicidal activity, greenhouse; details: 4 WAT
From the text: as §5, §6, §7

Hemp Sesbania = assay: Post-emergence herbicidal activity, greenhouse; details: Table II, 4 WAT
From the text: as §5, §6, §7

Sorghum = assay: Post-emergence herbicidal activity, greenhouse; details: Table II, 4 WAT
From the text: as §5, §6, §7

Downy Brome [12] = assay: Post-emergence herbicidal activity, greenhouse; details: 4 WAT
From the text: as §5, §6, §7

Barnyardgrass [13] = assay: Post-emergence herbicidal activity, greenhouse; details: 4 WAT
From the text: as §5, §6, §7

Lambsquarters [14] = assay: Post-emergence herbicidal activity, greenhouse; details: 4 WAT
From the text: as §5, §6, §7

Cocklebur [15] = assay: Post-emergence herbicidal activity, greenhouse; details: 4 WAT
From the text: as §5, §6, §7

Velvetleaf [16] = assay: Post-emergence herbicidal activity, greenhouse; details: 4 WAT
From the text: as §5, §6, §7

Panicum Spp = assay: Post-emergence herbicidal activity, greenhouse; details: Table II, 4 WAT
From the text: as §5, §6, §7

Rice = assay: Post-emergence herbicidal activity, greenhouse; details: Table II, 4 WAT
From the text: as §5, §6, §7

Johnsongrass [17] = assay: Post-emergence herbicidal activity, greenhouse; details: Table I, 4 WAT
From the text: as §5, §6, §7

Quackgrass [18] = assay: Post-emergence herbicidal activity, greenhouse; details: Table I, 4 WAT
From the text: as §5, §6, §7

Wild Buckwheat = assay: Post-emergence herbicidal activity, greenhouse; details: Table II, 4 WAT
From the text: as §5, §6, §7

## CCOC(=O)CN(CP(=O)(Oc1ccc(OC)cc1)Oc1ccc(OC)cc1)SSC [VI, Glycine, N-[[bis(4-methoxyphenoxy)phosphinyl]methyl]-N-(methyldithio)-, ethyl ester]
Morningglory [1]
  pre-emergent herbicidal activity index: 0 (0-24% control)
Yellow Nutsedge [2]
  pre-emergent herbicidal activity index: 0 (0-24% control)
Downy Brome [3]
  pre-emergent herbicidal activity index: 0 (0-24% control)
Barnyardgrass [4]
  pre-emergent herbicidal activity index: 0 (0-24% control)
Lambsquarters [5]
  pre-emergent herbicidal activity index: 0 (0-24% control)
Cocklebur [6]
  pre-emergent herbicidal activity index: 0 (0-24% control)
Velvetleaf [7]
  pre-emergent herbicidal activity index: 0 (0-24% control)
Johnsongrass [8]
  pre-emergent herbicidal activity index: 0 (0-24% control)
Quackgrass [9]
  pre-emergent herbicidal activity index: 0 (0-24% control)
Crabgrass; 0.28 kg/h
  post-emergence herbicidal activity index: 0 (0- 24% control)
Crabgrass; 1.12 kg/h
  post-emergence herbicidal activity index: 4 (100% control)
Crabgrass; 5.6 kg/h
  post-emergence herbicidal activity index: 4 (100% control)
Morningglory [10]; Table I, 5.6 kg/h
  post-emergence herbicidal activity index: 2 (50-74% control)
Morningglory [10]; Table I, 11.2 kg/h
  post-emergence herbicidal activity index: 3 (75-99% control)
Morningglory [10]; Table II, 0.28 kg/h
  post-emergence herbicidal activity index: 0 (0- 24% control)
Morningglory [10]; Table II, 1.12 kg/h
  post-emergence herbicidal activity index: 2 (50-74% control)
Morningglory [10]; Table II, 5.6 kg/h
  post-emergence herbicidal activity index: 3 (75-99% control)
Soybean; 0.28 kg/h
  post-emergence herbicidal activity index: 0 (0- 24% control)
Soybean; 1.12 kg/h
  post-emergence herbicidal activity index: 1 (25-49% control)
Soybean; 5.6 kg/h
  post-emergence herbicidal activity index: 3 (75-99% control)
Sugar Beet; 0.28 kg/h
  post-emergence herbicidal activity index: 0 (0- 24% control)
Sugar Beet; 1.12 kg/h
  post-emergence herbicidal activity index: 1 (25-49% control)
Sugar Beet; 5.6 kg/h
  post-emergence herbicidal activity index: 4 (100% control)
Wheat; 0.28 kg/h
  post-emergence herbicidal activity index: 0 (0- 24% control)
Wheat; 1.12 kg/h
  post-emergence herbicidal activity index: 1 (25-49% control)
Wheat; 5.6 kg/h
  post-emergence herbicidal activity index: 3 (75-99% control)
Canada Thistle; 5.6 kg/h
  post-emergence herbicidal activity index: 1 (25-49% control)
Canada Thistle; 11.2 kg/h
  post-emergence herbicidal activity index: 2 (50-74% control)
Yellow Nutsedge [11]; 5.6 kg/h
  post-emergence herbicidal activity index: 1 (25-49% control)
Yellow Nutsedge [11]; 11.2 kg/h
  post-emergence herbicidal activity index: 1 (25-49% control)
Smartweed; Table I, 5.6 kg/h
  post-emergence herbicidal activity index: 2 (50-74% control)
Smartweed; Table I, 11.2 kg/h
  post-emergence herbicidal activity index: 2 (50-74% control)
Smartweed; Table II, 0.28 kg/h
  post-emergence herbicidal activity index: 0 (0- 24% control)
Smartweed; Table II, 5.6 kg/h
  post-emergence herbicidal activity index: 4 (100% control)
Hemp Sesbania; 0.28 kg/h
  post-emergence herbicidal activity index: 0 (0- 24% control)
Hemp Sesbania; 1.12 kg/h
  post-emergence herbicidal activity index: 0 (0- 24% control)
Hemp Sesbania; 5.6 kg/h
  post-emergence herbicidal activity index: 3 (75-99% control)
Sorghum; 0.28 kg/h
  post-emergence herbicidal activity index: 0 (0- 24% control)
Sorghum; 1.12 kg/h
  post-emergence herbicidal activity index: 2 (50-74% control)
Sorghum; 5.6 kg/h
  post-emergence herbicidal activity index: 3 (75-99% control)
Downy Brome [12]; Table I, 5.6 kg/h
  post-emergence herbicidal activity index: 2 (50-74% control)
Downy Brome [12]; Table I, 11.2 kg/h
  post-emergence herbicidal activity index: 3 (75-99% control)
Downy Brome [12]; Table II, 0.28 kg/h
  post-emergence herbicidal activity index: 0 (0- 24% control)
Downy Brome [12]; Table II, 1.12 kg/h
  post-emergence herbicidal activity index: 2 (50-74% control)
Downy Brome [12]; Table II, 5.6 kg/h
  post-emergence herbicidal activity index: 4 (100% control)
Barnyardgrass [13]; Table I, 5.6 kg/h
  post-emergence herbicidal activity index: 4 (100% control)
Barnyardgrass [13]; Table I, 11.2 kg/h
  post-emergence herbicidal activity index: 3 (75-99% control)
Barnyardgrass [13]; Table II, 0.28 kg/h
  post-emergence herbicidal activity index: 0 (0- 24% control)
Barnyardgrass [13]; Table II, 1.12 kg/h
  post-emergence herbicidal activity index: 3 (75-99% control)
Barnyardgrass [13]; Table II, 5.6 kg/h
  post-emergence herbicidal activity index: 4 (100% control)
Lambsquarters [14]; Table I, 5.6 kg/h
  post-emergence herbicidal activity index: 3 (75-99% control)
Lambsquarters [14]; Table I, 11.2 kg/h
  post-emergence herbicidal activity index: 3 (75-99% control)
Lambsquarters [14]; Table II, 0.28 kg/h
  post-emergence herbicidal activity index: 0 (0- 24% control)
Lambsquarters [14]; Table II, 1.12 kg/h
  post-emergence herbicidal activity index: 2 (50-74% control)
Lambsquarters [14]; Table II, 5.6 kg/h
  post-emergence herbicidal activity index: 4 (100% control)
Cocklebur [15]; Table I, 5.6 kg/h
  post-emergence herbicidal activity index: 2 (50-74% control)
Cocklebur [15]; Table I, 11.2 kg/h
  post-emergence herbicidal activity index: 3 (75-99% control)
Cocklebur [15]; Table II, 0.28 kg/h
  post-emergence herbicidal activity index: 0 (0- 24% control)
Cocklebur [15]; Table II, 1.12 kg/h
  post-emergence herbicidal activity index: 3 (75-99% control)
Cocklebur [15]; Table II, 5.6 kg/h
  post-emergence herbicidal activity index: 4 (100% control)
Velvetleaf [16]; Table I, 5.6 kg/h
  post-emergence herbicidal activity index: 1 (25-49% control)
Velvetleaf [16]; Table I, 11.2 kg/h
  post-emergence herbicidal activity index: 2 (50-74% control)
Velvetleaf [16]; Table II, 0.28 kg/h
  post-emergence herbicidal activity index: 0 (0- 24% control)
Velvetleaf [16]; Table II, 1.12 kg/h
  post-emergence herbicidal activity index: 1 (25-49% control)
Velvetleaf [16]; Table II, 5.6 kg/h
  post-emergence herbicidal activity index: 4 (100% control)
Panicum Spp; 0.28 kg/h
  post-emergence herbicidal activity index: 0 (0- 24% control)
Panicum Spp; 1.12 kg/h
  post-emergence herbicidal activity index: 2 (50-74% control)
Panicum Spp; 5.6 kg/h
  post-emergence herbicidal activity index: 4 (100% control)
Rice; 0.28 kg/h
  post-emergence herbicidal activity index: 0 (0- 24% control)
Rice; 1.12 kg/h
  post-emergence herbicidal activity index: 0 (0- 24% control)
Rice; 5.6 kg/h
  post-emergence herbicidal activity index: 3 (75-99% control)
Johnsongrass [17]; 5.6 kg/h
  post-emergence herbicidal activity index: 2 (50-74% control)
Johnsongrass [17]; 11.2 kg/h
  post-emergence herbicidal activity index: 3 (75-99% control)
Quackgrass [18]; 5.6 kg/h
  post-emergence herbicidal activity index: 0 (0- 24% control)
Quackgrass [18]; 11.2 kg/h
  post-emergence herbicidal activity index: 1 (25-49% control)
Wild Buckwheat; 0.28 kg/h
  post-emergence herbicidal activity index: 0 (0- 24% control)
Wild Buckwheat; 1.12 kg/h
  post-emergence herbicidal activity index: 1 (25-49% control)
Wild Buckwheat; 5.6 kg/h
  post-emergence herbicidal activity index: 4 (100% control)
